We go through 48 compounds from PubChem BioAssay (NCI).

Structures are written as SMILES.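 Results reflect a 48-hour exposure of cells in 96-well plates to compound at five concentrations. GI50: concentration for 50% inhibition of growth. TGI marks complete inhibition of growth.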

The test system of this experiment is MDA-MB-468 breast. The experiment in a line: growth of human tumour cells (NCI), 48 h.
For the compound `CCOC(=O)c1ccc(Nc2sc(C(=O)c3ccc(Br)cc3)c(N)c2C#N)cc1`, the GI50 is 666 nM and the TGI was more than 100000 nM.
Turning to `COc1ccc2sc3cccc(NCCN(C)C)c3c(=O)c2c1`, the GI50 was 2000 nM and the TGI worked out at 4500 nM.
Take `COc1cc2c(c(OC)c1OC)-c1ccc(OC)c(=O)cc1[C@@H](N)CC2`: the GI50 was less than 10 nM.
For `Cc1cccc(-c2[nH]ncc2-c2ccc3ncccc3n2)n1`, the GI50 was 7340 nM and the TGI was more than 16500 nM.
As for `COc1cc2nccc(Oc3ccc(NC(=O)NC4CC4)c(Cl)c3)c2cc1C(N)=O`, the GI50 was 12500 nM and the TGI is more than 80800 nM.
With `CCN(CC)c1ccc(NC2=C(Cl)C(=O)c3nc(C)ccc3C2=O)cc1`, the GI50 was 1880 nM and the TGI came to 4050 nM.
With `COC1=CC(c2ccc[nH]2)=N/C1=C\c1[nH]c(C)c(CC(=O)OCc2ccccc2)c1CCC(=O)OCc1ccccc1`, the GI50 is 510 nM and the TGI came to 2960 nM.
Consider `CN(C)c1ccc(/C=C/c2ccnc3c(O)cccc23)cc1`, for which the GI50 is 574 nM and the TGI is 3340 nM.
In the case of `COc1ccc(/C=C(/C(=O)N2CCN(c3ccccc3)CC2)c2cc(OC)c(OC)c(OC)c2)cc1N`, the GI50 was 251 nM and the TGI was more than 100000 nM.
The matching figures for `Cc1ccc(Cl)cc1Nc1nc(C(F)(F)F)ccc1C(=O)N/N=C/c1cccnc1`: 1410 nM and 10200 nM.
In the case of `CCCCCCCC/C=C/CCCCCCCC1=NC(C)(C)CN1CC(C)O` (stereo not given), the GI50 is 4870 nM and the TGI came to 10900 nM.
On the same counts, the results for `c1ccc(N2N=C(c3cccc(Nc4ccncc4)c3)CC2c2ccc3c(c2)OCO3)cc1` (stereo not given) are 1470 nM and 3000 nM.
For the compound `CCN(CC)CCNc1ccc(C)c2sc3cc(Cl)ccc3c(=O)c12`, the GI50 is 2070 nM and the TGI was found to be 4210 nM.
As to `CSC1=Nc2c(c(C)c(-c3ccccc3)n2CCCN2CCCCC2)C2=NC(=O)C[C@H](C)N12`, the GI50 is 2460 nM and the TGI came out at 9510 nM.
The matching figures for `Cc1ccc(NC(=O)c2ccc(CN3CCN(C)CC3)cc2)cc1Nc1nccc(-c2cccnc2)n1`: 13900 nM and 36200 nM.
With `CN1CCC(COc2cnc(-c3cccc(Cn4nc(-c5cccc(C#N)c5)ccc4=O)c3)nc2)CC1`, the GI50 is 1490 nM and the TGI turned out to be 3230 nM.
As for `COc1cc([C@@H]2c3cc4c(c(O)c3C[C@H]3COC(=O)[C@@H]32)OCO4)cc(OC)c1OC`, the GI50 is 65.7 nM and the TGI was 311 nM.
Turning to `Nc1ccccc1NC(=O)c1ccc(CNc2nccc(-c3cccnc3)n2)cc1`, the GI50 is 496 nM and the TGI is 2250 nM.
For `N#Cc1c(NC(=O)NCc2ccccc2)sc2c1CCCC2`, the GI50 is 425 nM and the TGI came out at 11300 nM.
Consider `CCOC(=O)[C@@H](C)C[C@H](Cc1ccccc1)NC(=O)c1nc([C@@H](C[C@H](C(C)C)N(C)C(=O)[C@@H](NC(=O)[C@H]2CCCCN2C)C(C)C)OC(C)=O)sc1CCOCc1ccccc1`, for which the GI50 is 37.4 nM and the TGI worked out at 492 nM.
Consider `C=C(C)[C@@H]1CC[C@]2(COCCC#N)CC[C@]3(C)[C@H](CC[C@@H]4[C@@](C)(CCCNCCC#N)[C@H](C(=C)C)CC[C@]43C)[C@@H]12`, for which the GI50 was 17300 nM and the TGI was more than 50000 nM.
As for `CCOC(=O)C1=C(C)N=c2s/c(=C\c3ccccc3O)c(=O)n2C1c1ccc(OC)c2ccccc12` (stereo not given), the GI50 is 4550 nM and the TGI turned out to be 21200 nM.
With `CC1(C)N=C(N)N=C(N)N1c1ccc(CCCCc2ccccc2)c(Cl)c1`, the GI50 was 19.6 nM and the TGI is 1120 nM.
Take `CSc1ccc(-c2ccccc(=O)c2O)cc1`: the GI50 was 334 nM and the TGI is 4180 nM.
Regarding `Cn1cc(C2=C(c3ccccc3[N+](=O)[O-])C(=O)NC2=O)c2ccccc21`, the GI50 is 4080 nM and the TGI was determined as 10500 nM.
For the compound `COc1ccc(C(=O)Nc2ncc(Cc3cccc(Cl)c3)s2)cc1OC`, the GI50 was 307 nM and the TGI was more than 95900 nM.
Regarding `C[C@]12CCc3nc(Nc4cccc(O)c4)sc3C1=CC[C@@H]1[C@@H]2CC[C@]2(C)/C(=N\NC(N)=S)CC[C@@H]12`, the GI50 is 1860 nM and the TGI amounted to 4230 nM.
On the same counts, the results for `CC(C)(C)N1CCC1CN` (stereo not given) are more than 100000 nM and more than 100000 nM.
For the compound `O=C(COc1ccc(/C=C2\COc3ccccc3C2=O)cc1)Nc1nccs1`, the GI50 was 2040 nM and the TGI is 4730 nM.
The matching figures for `COc1cccc(CCC2CCCN(c3cc(C)nc(N)n3)C2)c1` (stereo not given): 180 nM and 952 nM.
As to `CC[C@@H]1[C@@H](C)O[C@@](O)([C@@H](C)[C@H](O)[C@H](C)[C@H]2OC(=O)/C=C/C=C/[C@H](C)[C@@H]([C@@H](C)[C@@H](O)[C@H](C)[C@@]3(O)C[C@@H](O[C@H]4C[C@@H](O)[C@H](O)C(C)O4)[C@H](CC)[C@@H](C)O3)OC(=O)/C=C/C=C/[C@@H]2C)C[C@H]1O[C@@H]1C[C@@H](O)[C@H](O)C(C)O1` (stereo not given in full), the GI50 was 68.8 nM and the TGI amounted to 204 nM.
For the compound `CCOC(=O)c1ccccc1OC(=O)NNc1ccccc1`, the GI50 was 11100 nM and the TGI was more than 100000 nM.
Consider `NCCCNc1nc2ccccc2c2c(=O)c3cc(F)cc(F)c3sc12`, for which the GI50 is 1710 nM and the TGI was found to be 3810 nM.
For the compound `O=C1CC[C@H](N2C(=O)c3cccc4c(Cc5ccc(CN6CCOCC6)cc5)ccc2c34)C(=O)N1`, the GI50 was 2730 nM and the TGI turned out to be 62500 nM.
As for `O=C1/C(=C\c2ccc(F)cc2)CN(C(=O)c2ccccc2)C/C1=C\c1ccc(F)cc1`, the GI50 is 1630 nM and the TGI came to 3710 nM.
As to `Oc1ccc(CSc2nnc(-c3ccncc3)o2)c2cccnc12`, the GI50 is 2270 nM and the TGI was found to be 8640 nM.
With `NS(=O)(=O)OCC1OC(n2cnc3cncnc32)C(O)C1O` (stereo not given), the GI50 was 18.9 nM and the TGI came out at 48.5 nM.
As to `NC1=CC(=O)c2cccnc2C1=O`, the GI50 was 1350 nM and the TGI came to 3030 nM.
Take `Cc1cc(Nc2ccc(OCc3ccccc3)cc2)nc2cc(O)ccc12`: the GI50 is 2590 nM and the TGI turned out to be 8740 nM.
On to `C[C@]12CC[C@@H]3c4cc(OC(F)F)c(O)cc4CC[C@H]3[C@@H]1CC[C@@H]2OS(N)(=O)=O`, for which the GI50 was 504 nM and the TGI stood at 30400 nM.
As to `COC(=O)[C@@H](C)C[C@H](Cc1cn(C)c2ccccc12)NC(=O)c1csc([C@@H](C[C@H](C(C)C)N(C)C(=O)[C@@H](NC(=O)[C@H]2CCCCN2C)C(C)C)OC(C)=O)n1`, the GI50 is 5.85 nM and the TGI is more than 16700 nM.
The matching figures for `Nc1c(C(=O)c2ccc(-c3cccnc3)cc2)cnn1-c1ccc(F)cc1`: more than 25000 nM and more than 25000 nM.
With `Cc1cc(=O)[nH]c(N/N=C/c2cc(Br)ccc2O)n1`, the GI50 is 460 nM and the TGI is 16500 nM.
As for `Cc1cc(Cl)cc2c(N=Nc3ccc(S(N)(=O)=O)cc3)c(O)[nH]c12`, the GI50 was more than 25000 nM and the TGI was more than 25000 nM.
As to `CC[C@H]1CN2CCc3cc(OC)c(OC)cc3C2C[C@@H]1CC1NCCc2cc(OC)c(OC)cc21` (stereo not given in full), the GI50 is 11.8 nM and the TGI came to 37.7 nM.
The matching figures for `CC[C@H](NC(=O)[C@H]1CCCCN1C)C(=O)N(C)[C@H](C[C@@H](OC(C)=O)c1nc(C(=O)N[C@@H](Cc2ccccc2)C[C@H](C)C(=O)O)cs1)C(C)C`: 1.99 nM and more than 14300 nM.
With `COc1ccc(N=Cc2c(O)ccc3c2oc2cc(Cl)c(O)c(Cl)c23)cc1`, the GI50 is 14200 nM and the TGI turned out to be 67600 nM.
As for `C[n+]1c(/C=C/c2c[nH]c3ccccc23)ccc2ccccc21`, the GI50 was 1800 nM and the TGI stood at 13000 nM.
